In patent US20110166132A1, “Gamma Secretase Modulators” (Amgen Inc., priority 2007, published 2011):

Target: T1, gamma secretase (Homo sapiens, UniProt P49768)
T1 construct: HEK293 cells stably expressing full length Amyloid Precursor Protein (APP); endogenous in cells; host or cells: HEK 293 cells stably expressing full length APP
Assay: GSM cell-based assay: Aβ 42 inhibition or reduction in HEK 293 cells over-expressing APP (sandwich ELISA)
Conditions: approximate IC50; HEK293 cells stably expressing full length APP, 24 hours incubation, 10-point dose response starting at 10 μM
Description: GSM cell-based assays were designed to measure the modulation of Aβ 42 from HEK 293 cells over-expressing APP.
Three simultaneous cell-based assays, namely Aβ 42 inhibition or reduction, Aβ 40 inhibition or reduction and a measurement of cell viability of the cells from which the Aβ 42/40 readout was obtained, together gave an interpretation of gamma secretase modulation (GSM). The assays measure Aβ 42 and Ab 40 from conditioned medium of test compound treated HEK 293 cells.
HEK293 cells stably expressing full length Amyloid Precursor Protein (APP) were plated at a density of 100K cells/well in 96 well plates (Costar). The cells were cultivated for 6 hours at 37° C. and 5% CO2 in DMEM supplemented with 10% FBS. The test compounds were then added to cells in 10-point dose response concentrations with the starting concentration being 10 μM. The compounds were diluted from stock solutions in DMSO and the final DMSO concentration of the test compounds on cells was 0.1%. After 24 hours of incubation with the test compounds the supernatant conditioned media was collected and the Aβ 42, Aβ 40 levels were determined using a sandwich ELISA. A cell viability test (CellTiter-Blue Cell Viability assay, Promega) on the cells from which the conditioned medium was harvested for Aβ 42 or Aβ 40 readouts gave an indication of cell survivability as a possible reason for false positive Aβ 42 or 40 reduction or inhibition readout. The IC50 of the compound (for either Aβ 42 or Aβ 40) was calculated from the percent of control or percent inhibition of Aβ 42 or Aβ 40 as a function of the concentration of the test compound.
The sandwich ELISA to detect Aβ 42 or Aβ 40 was performed in 96 well microtiter plates, which were pre-treated with goat anti-rabbit IgG (Pierce). The capture and detecting antibody pair that were used to detect Aβ 42 and Aβ 40 from cell supernatants were rabbit monoclonal Antibody 42 (RabMAb 42) and affinity purified polyclonal Antibody 40 pAB40 (Biosource) as capture antibodies and biotinylated 6E10 (Signet Labs Inc.) as detection antibody. The optimal concentration for RabMAb 42 was 1 μg/ml in Superblock/TBS (Pierce) that was supplemented with 0.05% Tween 20 (Sigma). The optimal concentration for the pAb40 antibody was 3 μg/ml in Superblock/TBS (Pierce) that was supplemented with 0.05% Tween 20 (Sigma). Optimal concentration for the detection antibody 6E10-biotinylated was 0.5 μg/ml in Superblock/TBS (Pierce) that had been supplemented with 2% normal goat serum and 2% normal mouse serum.
Cellular supernatants were incubated with the capture antibody for 16-20 hours at 4° C., followed by 3 wash steps in TBS-tween (0.05%). The detecting antibody incubation was for 3 hours at 4° C., again followed by the wash steps as described previously. The final readout of the ELISA is Time-Resolved Fluorescence (counts per minute) using Delfia reagents Streptavidin-Europium and Enhancement solutions (Perkin Elmer) and the EnVision Multilabel plate reader (Perkin Elmer).

Compound | IC50
Cc1cc(-c2ccc(NC(=O)[C@H](C)c3cc(C(F)(F)F)cc(C(F)(F)F)c3)cc2)ccn1 [Cpd 1, (2R)-2-(3,5-bis(trifluoromethyl)phenyl)-N-(4-(2-methyl-4-pyridinyl)phenyl)-propanamide] | 0.256 µM
Cc1cc(-c2ccc(NC(=O)Cc3ccc4c(c3)OCO4)cc2)ccn1 [Cpd 16, 2-(1,3-benzodioxol-5-yl)-N-(4-(2-methyl-4-pyridinyl)phenyl)acetamide] | 0.473 µM
Cc1cc(-c2ccc(NC(=O)c3cc(C4CC4)on3)cc2)ccn1 [Cpd 22] | 1.58 µM
Cc1cc(-c2ccc(NC(=O)Cc3cncc(Br)c3)cc2)ccn1 [Cpd 27, 2-(5-bromo-3-pyridinyl)-N-(4-(2-methyl-4-pyridinyl)phenyl)acetamide] | 2.45 µM
COC1CCCC(C(=O)Nc2ccc(-c3ccnc(C)c3)cc2)C1 (centres unmarked) [Cpd 35] | 4.28 µM
Cc1cc(-c2ccc(NC(=O)c3cc(Cl)nc(Cl)c3)cc2)ccn1 [Cpd 51] | > 10 µM
Cc1cc(-c2ccc(NC(=O)C3CCCO3)cc2)ccn1 (centres unmarked) [Cpd 52] | > 10 µM
CC(=O)N1CCC(C(=O)Nc2ccc(-c3ccnc(C)c3)cc2)CC1 [Cpd 55] | > 10 µM
Cc1cc(-c2ccc(NC(=O)C3CC(=O)N(C4CCCCC4)C3)cc2)ccn1 (centres unmarked) [Cpd 60] | > 10 µM
Cc1cc(-c2ccc(NC(=O)C(C)c3ccc4c(c3)[nH]c3ccc(Cl)cc34)cc2)ccn1 (centres unmarked) [Cpd 65, 2-(6-chloro-9H-carbazol-2-yl)-N-(4-(2-methyl-4-pyridinyl)phenyl)propanamide] | 0.108 µM
COc1ccc2cc([C@@H](C)C(=O)Nc3ccc(-c4ccnc(C)c4)cc3)ccc2c1 [Cpd 66, (2R)-2-(6-methoxy-2-naphthalenyl)-N-(4-(2-methyl-4-pyridinyl)phenyl)propanamide] | 0.205 µM
Cc1cc(-c2ccc(NC(=O)Cc3n[nH]c4ccc(Br)cc34)cc2)ccn1 [Cpd 79, 2-(5-bromo-1H-indazol-3-yl)-N-(4-(2-methyl-4-pyridinyl)phenyl)acetamide] | 1.18 µM
Cc1cc(-c2ccc(NC(=O)c3cc(Cl)cc(Cl)c3)c(F)c2)ccn1 [Cpd 86] | > 10 µM
Cc1cc(-c2ccc(NC(=O)Cc3cc(C(F)(F)F)cc(C(F)(F)F)c3)cc2)ccn1 [Cpd 87, 2-(3,5-bis(trifluoromethyl)phenyl)-N-(4-(2-methyl-4-pyridinyl)phenyl)acetamide] | 0.461 µM
Cc1cc(-c2ccc(NC(=O)Cc3c(C)noc3C)cc2)ccn1 [Cpd 89, 2-(3,5-dimethyl-4-isoxazolyl)-N-(4-(2-methyl-4-pyridinyl)phenyl)acetamide] | > 10 µM
Cc1cccc([C@H](CC(C)C)C(=O)Nc2ccc(-c3ccnc(C)c3)cc2)c1 [Cpd 105, (2S)-4-methyl-2-(3-methylphenyl)-N-(4-(2-methyl-4-pyridinyl)phenyl)pentanamide] | 1.73 µM
Cc1cc(-c2ccc(NC(=O)Cc3ccc(OC(F)(F)F)cc3)cc2)ccn1 [Cpd 110, N-(4-(2-methyl-4-pyridinyl)phenyl)-2-(4-(trifluoromethoxy)phenyl)acetamide] | 3.27 µM
Cc1cc(-c2ccc(NC(=O)Cc3ccc(OCc4ccccc4)cc3)cc2)ccn1 [Cpd 111, 2-(4-(benzyloxy)phenyl)-N-(4-(2-methyl-4-pyridinyl)phenyl)acetamide] | 3.3 µM
Cc1cc(-c2ccc(NC(=O)Cc3ccc(Oc4ccccc4)cc3)cc2)ccn1 [Cpd 112] | 5.78 µM
Cc1cc(-c2ccc(NC(=O)Cc3ccccc3OCc3ccccc3)cc2)ccn1 [Cpd 113, 2-(2-(benzyloxy)phenyl)-N-(4-(2-methyl-4-pyridinyl)phenyl)acetamide] | > 10 µM
Cc1cc(-c2ccc(NC(=O)Cc3ccc4c(c3)CCO4)cc2)ccn1 [Cpd 116, 2-(2,3-dihydro-1-benzofuran-5-yl)-N-(4-(2-methyl-4-pyridinyl)phenyl)acetamide] | 4.14 µM
Cc1cc(-c2ccc(NC(=O)[C@H](C)c3ccc4c(c3)[nH]c3ccc(Cl)cc34)cc2)ccn1 [Cpd 122, (2R)-2-(6-chloro-9H-carbazol-2-yl)-N-(4-(2-methyl-4-pyridinyl)phenyl)propanamide] | 0.328 µM
Cc1cc(-c2ccc(NC(=O)C(CC3CCC3)c3cccc(Br)c3)cc2)ccn1 (centres unmarked) [Cpd 124, 2-(3-bromophenyl)-3-cyclobutyl-N-(4-(2-methyl-4-pyridinyl)phenyl)propanamide] | 0.282 µM
Cc1cc(-c2ccc(NC(=O)Cc3ccc4oc(-c5ccccc5)nc4c3)cc2)ccn1 [Cpd 125, N-(4-(2-methyl-4-pyridinyl)phenyl)-2-(2-phenyl-1,3-benzoxazol-5-yl)acetamide] | 0.272 µM
Cc1cc(-c2ccc(NC(=O)[C@@H](CC(C)C)c3cccc(-c4ccc(N5CCOCC5)cc4)c3)cc2)ccn1 [Cpd 127, (2S)-4-methyl-N-(4-(2-methyl-4-pyridinyl)phenyl)-2-(4′-(4-morpholinyl)-3-biphenylyl)pentanamide] | 0.129 µM
Cc1cc(-c2ccc(NC(=O)C(CCF)c3cccc(Br)c3)cc2)ccn1 (centres unmarked) [Cpd 129, 2-(3-bromophenyl)-4-fluoro-N-(4-(2-methyl-4-pyridinyl)phenyl)butanamide] | > 10 µM

Other lines, results leading:

IC50 | Compound
0.79 µM | Cc1cc(-c2ccc(NC(=O)Cc3cccc(Cl)c3)cc2)ccn1 [Cpd 8, 2-(3-chlorophenyl)-N-(4-(2-methyl-4-pyridinyl)phenyl)acetamide]
1.38 µM | COc1ccc(Cl)cc1C(=O)Nc1ccc(-c2ccnc(C)c2)cc1 [Cpd 10]
0.883 µM | Cc1cc(-c2ccc(NC(=O)Cc3cccc4ccccc34)cc2)ccn1 [Cpd 15, N-(4-(2-methyl-4-pyridinyl)phenyl)-2-(1-naphthalenyl)acetamide]
0.557 µM | Cc1cc(-c2ccc(NC(=O)Cc3ccc(-c4ccccc4)cc3)cc2)ccn1 [Cpd 19, 2-(4-biphenylyl)-N-(4-(2-methyl-4-pyridinyl)phenyl)acetamide]
2.61 µM | Cc1cc(-c2ccc(NC(=O)c3cn4c(C)cccc4n3)cc2)ccn1 [Cpd 20]
1.7 µM | Cc1cc(-c2ccc(NC(=O)[C@@H](C)c3ccccc3)cc2)ccn1 [Cpd 21, (2S)-N-(4-(2-methyl-4-pyridinyl)phenyl)-2-phenylpropanamide]
1.97 µM | Cc1cc(-c2ccc(NC(=O)C(C)c3cccc(Cl)n3)cc2)ccn1 (centres unmarked) [Cpd 24, 2-(6-chloro-2-pyridinyl)-N-(4-(2-methyl-4-pyridinyl)phenyl)propanamide]
0.854 µM | Cc1cc(-c2ccc(NC(=O)c3cccc(Oc4ccccc4)c3)cc2)ccn1 [Cpd 31]
2.93 µM | COc1cccc(C(=O)Nc2ccc(-c3ccnc(C)c3)cc2)c1 [Cpd 34]
0.567 µM | COc1ccc(C(=O)Nc2ccc(-c3ccnc(C)c3)cc2)cc1Cl [Cpd 37]
2.37 µM | Cc1cc(-c2ccc(NC(=O)Cc3ccc(C)s3)cc2)ccn1 [Cpd 38, N-(4-(2-methyl-4-pyridinyl)phenyl)-2-(5-methyl-2-thiophenyl)acetamid]
0.474 µM | Cc1cc(-c2ccc(NC(=O)C(c3ccccc3)C(C)C)cc2)ccn1 (centres unmarked) [Cpd 39, 3-methyl-N-(4-(2-methyl-4-pyridinyl)-phenyl)-2-phenylbutanamide]
> 10 µM | Cc1cc(-c2ccc(NC(=O)c3cccc(N(C)C)c3)cc2)ccn1 [Cpd 46]
> 10 µM | Cc1cc(-c2ccc(NC(=O)C(C)(C)c3ccc(Cl)cc3)cc2)ccn1 [Cpd 48, 2-(4-chlorophenyl)-2-methyl-N-(4-(2-methyl-4-pyridinyl)phenyl)propanamide]
> 10 µM | Cc1cc(-c2ccc(NC(=O)C3CC(=O)N(c4ccccc4)C3)cc2)ccn1 (centres unmarked) [Cpd 53]
> 10 µM | Cc1cc(-c2ccc(NC(=O)C3CC3)cc2)ccn1 [Cpd 54]
> 10 µM | Cc1cc(-c2ccc(NC(=O)Cc3ccccn3)cc2)ccn1 [Cpd 88, N-(4-(2-methyl-4-pyridinyl)phenyl)-2-(2-pyridinyl)acetamide]
> 10 µM | Cc1cc(-c2ccc(NC(=O)c3ccccc3-c3ccccc3)cc2)ccn1 [Cpd 91]
> 10 µM | Cc1cc(-c2ccc(NC(=O)Cc3c(F)cccc3Cl)cc2)ccn1 [Cpd 106, 2-(2-chloro-6-fluorophenyl)-N-(4-(2-methyl-4-pyridinyl)phenyl)acetamide]
3.86 µM | Cc1cc(-c2ccc(NC(=O)C3CCc4ccccc43)cc2)ccn1 (centres unmarked) [Cpd 117]
> 3.33 µM | Cc1cc(-c2ccc(NC(=O)C3CC(=O)c4ccccc43)cc2)ccn1 (centres unmarked) [Cpd 120]
